Measured values: patent US20260263517A1, “THERAPEUTIC METHODS WITH TARGET-LINKED SMALL MOLECULES AND ANTI-TARGET CAR T CELLS” (Seattle Children's Hospital (dba Seattle Children's …, priority 2022, published 2026)

Test system: MDA-MB-231 tumors
Experiment: EC17 dose finding and CRS assessment in MDA-MB-231 tumor-bearing mice
Type: in vivo
Settings: for human IFNγ in mouse plasma, fold over CAR-T cells only: all EC17 treated tumor cohorts
Experimental: All animal care and use were performed according to NIH guidelines and in compliance with protocols approved by the Purdue University Animal Use and Care Committee. Female 4 to 5-week-old NOD/SCID gamma (NSG™) mice (stock number:005557) were purchased from The Jackson Faboratory (Bar Harbor, ME). Unless specifically indicated, all animals were maintained on a FA-deficient diet (TestDiet, St. Fouis, MO) upon arrival and throughout the study. To establish subcutaneous xenografts, MDA-MB-231 and HOS-FRα were implanted in the right flank region at 2.5×10^6 and 1×10^6 cells per animal, respectively. For intravenous xenografts, THP1-FRβ) cells were inoculated at 5×10^6 cells per animal. Subcutaneous tumors were measured 2-3 times per week with a caliper and calculated using the ellipsoidal formula (length×width2)/2. […] All animal doses (CAR-T cells, EC17, sodium fluorescein) were given intravenously.
In a therapeutic setting, EC17 CAM can be given before or after CAR-T cell injection. As described herein, the first dose of EC17 was administered 2-3.5 days after CAR-T cells to allow for an observation period of human T cells in tumor-bearing mice. Two batches of unsorted E2-CAR-T cells (23% or 39% EGFRt+, 1:1 CD4/CD8) were used for in vivo studies. On the day of infusion for each experiment (day 0), frozen CAR-T cells were quickly thawed at 37° C., washed 2× with Dulbecco's IX PBS (pH 7.4) and injected into the tail vein at desired EGFRt+E2-CAR-T cell doses. In addition, a small aliquot of CAR-T cells was analyzed by flow cytometry for CD4 to CD 8 ratio and differentiation status of CAR-T cells. On the first day of EC17 dose, tumor-bearing animals were randomly assigned into groups according to their tumor sizes or the same number of days post intravenous implantation (i.e., THP1-FRβ).
For MDA-MB-231 studies, mice received a high dose (~10 million) of a “clinical facsimile” of E2-CAR-T cells (~39% EGFRt+) with a low differentiation profile (FIG. 9). Two days later, 3 different treatment regimens of EC17 were started at an average tumor size of −293±39 mm^3 (FIG. 12). The EC17 dosing was given once-a-week (SIW) at 500 nmol/kg on Mondays, or as escalating doses of 5, 50 or 100, and 500 or 1000 nmol/kg (i.e., 5/50/500 or 5/100/1000) on Monday, Thursday, and Monday with a 6-day break in-between cycles. Control mice were left untreated (received CAR-T cells but no EC17). For comparison, a cohort of tumor-free littermates also received the same number of CAR-T cells without or with EC17 SIW at 500 nmol/kg.
The initial EC17 dose finding studies were conducted in MDA-MB-231 tumor bearing mice as shown by the schematic diagram of the experimental layout (FIG. 12, panel A). NSG mice without or with MDA-MB-231 tumors (~211±65 mm3) were engrafted on day 0 with −10 million of a “clinical facsimile” batch of E2-CAR-T cells (−39% EGFRt+, 51:49 CD4/CD8). This batch of CAR-T cells consisted of mostly TSCM and TCM phenotypes (see FIG. 9). Two days after the CAR-T cell injection, one cohort of tumor-bearing mice were left untreated while three cohorts were treated with different regimens of EC17, including single injection per week (SIW) at 500 nmol/kg, or as escalating EC17 dose levels of 5/50/500 (Escalation-1) or 5/100/1000 nmol/kg (Escalation-2) given on a Monday/Thursday/Monday schedule with 1-week drug-free intervals. For comparison, two tumor-free cohorts were either untreated or treated with EC17 SIW at 500 nmol/kg.

[1] = ~10 million CAR-T cells, continued EC17 dosing independent of the regimen

NC1=NC2N=CC(CNc3ccc(C(=O)N[C@@H](CCC(=O)NCCNC(=S)Nc4ccc(-c5c6ccc(=O)cc-6oc6cc(O)ccc56)c(C(=O)O)c4)C(=O)O)cc3)=NC2C(=O)N1 (stereo partly drawn) [EC17, FA-(γ)-ethylenediamine-FITC]
cures (EC17-treated cohorts): 100%
body weight loss (EC17 Escalation-2 regimen 5/100/1000 nmol/kg): persistent body weight loss
onset of CRS and body weight loss (EC17 SIW at 500 nmol/kg): earliest onset of CRS and body weight loss
human IFNγ in mouse plasma, fold over CAR-T cells only (day 11 (~20 hours after previous EC17 dose)): ~ 30 ×
human IFNγ in mouse plasma, fold over CAR-T cells only (day 12 (~42 hours after previous EC17 dose)): ~ 10 ×
EC17 dose triggering severe CRS (grade≥3) (in combination with a high CAR-T cell dose): ≥ 500 nmol/kg
persistence of CAR-T cells in mouse blood (tumor-bearing animals, last measurement): up to 54 days
CRS symptoms (grades) [1]: 2-3
body weight loss [1]: significant body weight losses
